Experimental data: PubChem BioAssay AID1963844 (Molecular Pharmacology Branch, DTP, NCI, 2024)
pIC50: −log10 of the molar value.

Test system: 422866-222-R5-J1-PDC complex spheroid viability
Assay: Anticancer human tumor 422866-222-R5-J1-PDC patient-derived pancreatic adenocarcinoma cell line growth inhibition [POLQ]
Conditions: for pIC50: curve of first compound; for viability, T/C: stronger effect = lower value
How it was run: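 Patient-derived tumour cells were co-cultured with HUVEC and mesenchymal stem cells as multicellular spheroids at 37 °C. They were treated with POLQ inhibitors (novobiocin, ART-558, RP6685) alone or combined with other agents. Top concentrations were at or near clinical Cmax (otherwise 10 microM; SN-38 at 1 microM), decreasing in half-log steps.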

[1] = second compound 0.0316 µM, first compound 0.0316 µM
[2] = second compound 0.0316 µM, first compound 0.1 µM
[3] = second compound 0.0316 µM, first compound 0.316 µM
[4] = second compound 0.0316 µM, first compound 1 µM
[5] = second compound 0.0316 µM, first compound 3.16 µM
[6] = second compound 0.0316 µM, first compound 10 µM
[7] = second compound 0.1 µM, first compound 0.0316 µM
[8] = second compound 0.1 µM, first compound 0.1 µM
[9] = second compound 0.1 µM, first compound 0.316 µM
[10] = second compound 0.1 µM, first compound 1 µM
[11] = second compound 0.1 µM, first compound 3.16 µM
[12] = second compound 0.1 µM, first compound 10 µM
[13] = second compound 0.316 µM, first compound 0.0316 µM
[14] = second compound 0.316 µM, first compound 0.1 µM
[15] = second compound 0.316 µM, first compound 0.316 µM
[16] = second compound 0.316 µM, first compound 1 µM
[17] = second compound 0.316 µM, first compound 3.16 µM
[18] = second compound 0.316 µM, first compound 10 µM
[19] = second compound 1 µM, first compound 0.0316 µM
[20] = second compound 1 µM, first compound 0.1 µM
[21] = second compound 1 µM, first compound 0.316 µM
[22] = second compound 1 µM, first compound 1 µM
[23] = second compound 1 µM, first compound 3.16 µM
[24] = second compound 1 µM, first compound 10 µM
[25] = second compound 3.16 µM, first compound 0.0316 µM
[26] = second compound 3.16 µM, first compound 0.1 µM
[27] = second compound 3.16 µM, first compound 0.316 µM
[28] = second compound 3.16 µM, first compound 1 µM
[29] = second compound 3.16 µM, first compound 3.16 µM
[30] = second compound 3.16 µM, first compound 10 µM
[31] = second compound 10 µM, first compound 0.0316 µM
[32] = second compound 10 µM, first compound 0.1 µM
[33] = second compound 10 µM, first compound 0.316 µM
[34] = second compound 10 µM, first compound 1 µM
[35] = second compound 10 µM, first compound 3.16 µM
[36] = second compound 10 µM, first compound 10 µM
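Also: spheroids exposed to compounds for one week before readout.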
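For viability, T/C in this document: percent of DMSO vehicle wells luminescence so 100% = untreated viability.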

Q: Which results are given for `COc1cc2cc(C(=O)CCC(=O)O)sc2cc1OC` + COC1C(OC(N)=O)C(O)C(Oc2ccc3c(O)c(NC(=O)c4ccc(O)c(CC=C(C)C)c4)c(=O)oc3c2C)OC1(C)C?
A: pIC50 (second compound 0.0316 µM): < 5.00; pIC50 (second compound 0.1 µM): < 5.00; pIC50 (second compound 0.316 µM): < 5.00; pIC50 (second compound 1 µM): < 5.00; pIC50 (second compound 3.16 µM): < 5.00; pIC50 (second compound 10 µM): < 5.00; viability, T/C [1]: 102%; viability, T/C [2]: 104%; viability, T/C [3]: 87.3%; viability, T/C [4]: 114%; viability, T/C [5]: 94.2%; viability, T/C [6]: 106%; viability, T/C [7]: 114%; viability, T/C [8]: 95.8%; viability, T/C [9]: 93.8%; viability, T/C [10]: 105%; viability, T/C [11]: 88.1%; viability, T/C [12]: 102%; viability, T/C [13]: 98.8%; viability, T/C [14]: 95%; viability, T/C [15]: 110%; viability, T/C [16]: 93.4%; viability, T/C [17]: 93.8%; viability, T/C [18]: 106%; viability, T/C [19]: 104%; viability, T/C [20]: 96.8%; viability, T/C [21]: 94.4%; viability, T/C [22]: 102%; viability, T/C [23]: 92.7%; viability, T/C [24]: 115%; viability, T/C [25]: 99.1%; viability, T/C [26]: 102%; viability, T/C [27]: 107%; viability, T/C [28]: 103%; viability, T/C [29]: 92.5%; viability, T/C [30]: 134%; viability, T/C [31]: 97.2%; viability, T/C [32]: 104%; viability, T/C [33]: 105%; viability, T/C [34]: 99%; viability, T/C [35]: 94.8%; viability, T/C [36]: 122%

Q: Which results are given for `COc1ccc([C@@H](O)c2cc(-c3ncnc4cc(N5CCOCC5)ccc34)c(F)cc2Cl)nn1` + COC1C(OC(N)=O)C(O)C(Oc2ccc3c(O)c(NC(=O)c4ccc(O)c(CC=C(C)C)c4)c(=O)oc3c2C)OC1(C)C?
A: pIC50 (second compound 0.0316 µM): 5.58; pIC50 (second compound 0.1 µM): 5.70; pIC50 (second compound 0.316 µM): 5.66; pIC50 (second compound 1 µM): 5.54; pIC50 (second compound 3.16 µM): 5.63; pIC50 (second compound 10 µM): 5.71; viability, T/C [1]: 96.4%; viability, T/C [2]: 96%; viability, T/C [3]: 76.5%; viability, T/C [4]: 67.2%; viability, T/C [5]: 44.6%; viability, T/C [6]: 40.5%; viability, T/C [7]: 101%; viability, T/C [8]: 100%; viability, T/C [9]: 93.3%; viability, T/C [10]: 60%; viability, T/C [11]: 45.5%; viability, T/C [12]: 37.4%; viability, T/C [13]: 88.5%; viability, T/C [14]: 94.9%; viability, T/C [15]: 82.8%; viability, T/C [16]: 61.7%; viability, T/C [17]: 41.2%; viability, T/C [18]: 46.5%; viability, T/C [19]: 109%; viability, T/C [20]: 102%; viability, T/C [21]: 76%; viability, T/C [22]: 67.5%; viability, T/C [23]: 47.1%; viability, T/C [24]: 40%; viability, T/C [25]: 98.8%; viability, T/C [26]: 99.5%; viability, T/C [27]: 77.9%; viability, T/C [28]: 62%; viability, T/C [29]: 48.3%; viability, T/C [30]: 30.4%; viability, T/C [31]: 97.7%; viability, T/C [32]: 99.5%; viability, T/C [33]: 86.7%; viability, T/C [34]: 58.7%; viability, T/C [35]: 45.4%; viability, T/C [36]: 37%

Q: With `O=C(Nc1ccc(O)c(NS(=O)(=O)c2ccc(F)cc2)c1)c1ccc(-c2ccccc2)cc1` + COC1C(OC(N)=O)C(O)C(Oc2ccc3c(O)c(NC(=O)c4ccc(O)c(CC=C(C)C)c4)c(=O)oc3c2C)OC1(C)C as the molecule, how does the pIC50 (second compound 0.0316 µM) read?
A: < 5.00

Q: And the pIC50 (second compound 0.1 µM)?
A: < 5.00

Q: What about the pIC50 (second compound 0.316 µM) of the same molecule?
A: < 5.00

Q: What about the pIC50 (second compound 1 µM) of the same molecule?
A: < 5.00

Q: What about the pIC50 (second compound 3.16 µM) of the same molecule?
A: < 5.00

Q: And the pIC50 (second compound 10 µM)?
A: < 5.00

Q: And the viability, T/C [1]?
A: 99.6%

Q: What about the viability, T/C [2] of the same molecule?
A: 101%

Q: What about the viability, T/C [3] of the same molecule?
A: 77.7%

Q: And the viability, T/C [4]?
A: 94.6%

Q: And the viability, T/C [5]?
A: 96.1%

Q: What about the viability, T/C [6] of the same molecule?
A: 126%

Q: And the viability, T/C [7]?
A: 92.2%

Q: What about the viability, T/C [8] of the same molecule?
A: 87.3%

Q: What about the viability, T/C [9] of the same molecule?
A: 83.3%

Q: What about the viability, T/C [10] of the same molecule?
A: 95.2%

Q: And the viability, T/C [11]?
A: 88.8%

Q: And the viability, T/C [12]?
A: 133%

Q: And the viability, T/C [13]?
A: 92.4%

Q: What about the viability, T/C [14] of the same molecule?
A: 88%

Q: What about the viability, T/C [15] of the same molecule?
A: 84%

Q: What about the viability, T/C [16] of the same molecule?
A: 99.5%

Q: What about the viability, T/C [17] of the same molecule?
A: 93%

Q: What about the viability, T/C [18] of the same molecule?
A: 123%

Q: What about the viability, T/C [19] of the same molecule?
A: 106%

Q: And the viability, T/C [20]?
A: 95%

Q: And the viability, T/C [21]?
A: 83.7%

Q: What about the viability, T/C [22] of the same molecule?
A: 84.9%

Q: What about the viability, T/C [23] of the same molecule?
A: 97.7%

Q: And the viability, T/C [24]?
A: 125%

Q: And the viability, T/C [25]?
A: 93.8%

Q: What about the viability, T/C [26] of the same molecule?
A: 100%

Q: What about the viability, T/C [27] of the same molecule?
A: 103%

Q: What about the viability, T/C [28] of the same molecule?
A: 89.2%

Q: What about the viability, T/C [29] of the same molecule?
A: 103%

Q: What about the viability, T/C [30] of the same molecule?
A: 124%

Q: What about the viability, T/C [31] of the same molecule?
A: 95.8%

Q: What about the viability, T/C [32] of the same molecule?
A: 80.9%

Q: And the viability, T/C [33]?
A: 87.4%

Q: And the viability, T/C [34]?
A: 85%

Q: What about the viability, T/C [35] of the same molecule?
A: 96.4%

Q: And the viability, T/C [36]?
A: 133%

Q: `COc1cccc2c1C(=O)c1c(O)c3c(c(O)c1C2=O)CC(O)(C(=O)CO)CC3OC1CC(N)C(O)C(C)O1` (stereo not drawn) + Cc1cccc(N(C)C(=O)C2C(O)CCN2c2nc(C)cc(C(F)(F)F)c2C#N)c1 was tested. Which pIC50 (second compound 0.0316 µM) did it give?
A: 6.80

Q: What about the pIC50 (second compound 0.1 µM) of the same molecule?
A: 6.94

Q: What about the pIC50 (second compound 0.316 µM) of the same molecule?
A: 6.82

Q: And the pIC50 (second compound 1 µM)?
A: 6.69

Q: What about the pIC50 (second compound 3.16 µM) of the same molecule?
A: 6.69

Q: What about the pIC50 (second compound 10 µM) of the same molecule?
A: 6.88

Q: And the viability, T/C [1]?
A: 67.2%

Q: What about the viability, T/C [2] of the same molecule?
A: 56.3%

Q: What about the viability, T/C [3] of the same molecule?
A: 41.4%

Q: And the viability, T/C [4]?
A: 24.5%

Q: And the viability, T/C [5]?
A: 32.9%

Q: And the viability, T/C [6]?
A: 30.1%

Q: And the viability, T/C [7]?
A: 66.6%

Q: And the viability, T/C [8]?
A: 51.3%

Q: What about the viability, T/C [9] of the same molecule?
A: 37%

Q: And the viability, T/C [10]?
A: 22.6%

Q: What about the viability, T/C [11] of the same molecule?
A: 27.4%

Q: What about the viability, T/C [12] of the same molecule?
A: 34.4%

Q: What about the viability, T/C [13] of the same molecule?
A: 57.6%

Q: And the viability, T/C [14]?
A: 56.7%

Q: What about the viability, T/C [15] of the same molecule?
A: 37.3%

Q: And the viability, T/C [16]?
A: 25.6%

Q: What about the viability, T/C [17] of the same molecule?
A: 26.2%

Q: What about the viability, T/C [18] of the same molecule?
A: 36.4%

Q: And the viability, T/C [19]?
A: 65.5%

Q: What about the viability, T/C [20] of the same molecule?
A: 60.8%

Q: And the viability, T/C [21]?
A: 42.4%

Q: What about the viability, T/C [22] of the same molecule?
A: 24.5%

Q: What about the viability, T/C [23] of the same molecule?
A: 28.6%

Q: And the viability, T/C [24]?
A: 36.6%

Q: And the viability, T/C [25]?
A: 62.3%

Q: What about the viability, T/C [26] of the same molecule?
A: 58.5%

Q: And the viability, T/C [27]?
A: 44.3%

Q: And the viability, T/C [28]?
A: 30.1%

Q: And the viability, T/C [29]?
A: 30.2%

Q: And the viability, T/C [30]?
A: 36.2%

Q: What about the viability, T/C [31] of the same molecule?
A: 68.2%

Q: And the viability, T/C [32]?
A: 53%

Q: What about the viability, T/C [33] of the same molecule?
A: 40.5%

Q: What about the viability, T/C [34] of the same molecule?
A: 25.9%

Q: What about the viability, T/C [35] of the same molecule?
A: 24.1%

Q: What about the viability, T/C [36] of the same molecule?
A: 40.2%
